Assays:
corn poppy (CP) = experiment: Ex2 PRE greenhouse, % control; assay type: in vivo, Papaver rhoeas; details: 21 DAT, g ai/ha by row: r12-40 2,4-DC 31.25/62.5/125/250/375 (3 rows each) + metazachlor 250/500/750 (cycling), r42-46 2,4-DC 31.25/62.5/125/250/375, r47-49 metazachlor 250/500/750
Protocol: (§1) Test compositions containing 2,4 DC Example 1B and metazachlor (Butisan® S, 43.1% active ingredient, BASF) and mixtures of 2-(2,4-dichlorophenyl)methyl-4,4-dimethyl-3-isoxazolidinone and metazachlor, were diluted with water to provide the appropriate test rate concentrations.
(§2) The test crops were wheat and canola (Brassica napus), the test weeds were Italian ryegrass (IR) (Lolium perenne. multiflorum), annual bluegrass (AB) (Poa annua), common lambsquarters (CL) (Chenopodium album), littleseed canarygrass (LC) (Phalaris minor), common chickweed (CC) (Stellaria media), and corn poppy (CP) (Papaver rhoeas).
(§3) For pre-emergence testing, four disposable fiber flats (6″ by 10″) for each rate of application of each herbicide solution were filled with top soil, to which seeds of each species were planted in furrows made by a template pressed on the top of the soil. The furrows were covered with soil after planting the seed and were watered well before application of the test compounds. […]
(§4) The control of weeds was evaluated in each experimental test at 21 days after treatment (DAT) for corn poppy and wheat and 28 DAT for all other species. […]
(§5) Percent control was determined by a method similar to the 0 to 100 rating system disclosed in “Research Methods in Weed Science,” 2nd ed., B. Truelove, Ed.; Southern Weed Science Society; Auburn University, Auburn, Ala., 1977.

annual bluegrass (AB) = experiment: Ex2 PRE greenhouse, % control; assay type: in vivo, Poa annua; details: 28 DAT, g ai/ha by row: r12-40 2,4-DC 31.25/62.5/125/250/375 (3 rows each) + metazachlor 250/500/750 (cycling), r42-46 2,4-DC 31.25/62.5/125/250/375, r47-49 metazachlor 250/500/750
Protocol: as §1, §2, §3, §4, §5

Italian ryegrass (IR) = experiment: Ex2 PRE greenhouse, % control; assay type: in vivo, Lolium perenne. multiflorum; details: 28 DAT, g ai/ha by row: r12-40 2,4-DC 31.25/62.5/125/250/375 (3 rows each) + metazachlor 250/500/750 (cycling)
Protocol: as §1, §2
For pre-emergence testing, four disposable fiber flats (6″ by 10″) for each rate of application of each herbicide solution were filled with top soil, to which seeds of each species were planted in furrows made by a template pressed on the top of the soil. The furrows were covered with soil after planting the seed and were watered well before application of the test compounds.
Fiber flats designated for treatment were placed in a spray chamber having a static platform and a movable sprayer and height of the spray nozzle was 10.5 inches above the soil level. Once the sprayer was calibrated using water for spray volume of 30 gallons per acre, flats were sprayed with sprayer at a speed to receive a coverage equivalent of 30 gallons per acre. The application rates are those shown in Table 1 below for the individual herbicidal solutions and the herbicide compositions of the present invention. The pre-emergence flats were immediately placed in the greenhouse and watered lightly after treatment. Thereafter they were regularly watered and fertilized for the duration of the test.
The control of weeds was evaluated in each experimental test at 21 days after treatment (DAT) for corn poppy and wheat and 28 DAT for all other species. The results, shown as an average of the replications were compared with results observed in untreated control flats in the same tests.
as §5

[1] = tested on: common lambsquarters (CL); experiment: Ex2 PRE greenhouse, % control; assay type: in vivo, Chenopodium album; details: 28 DAT, g ai/ha by row: r12-40 2,4-DC 31.25/62.5/125/250/375 (3 rows each) + metazachlor 250/500/750 (cycling), r42-46 2,4-DC 31.25/62.5/125/250/375, r47-49 metazachlor 250/500/750
Protocol: as §1, §2, §3, §4, §5

[2] = tested on: littleseed canarygrass (LC); experiment: Ex2 PRE greenhouse, % control; assay type: in vivo, Phalaris minor; details: 28 DAT, g ai/ha by row: r12-40 2,4-DC 31.25/62.5/125/250/375 (3 rows each) + metazachlor 250/500/750 (cycling)
Excerpt: Fiber flats designated for treatment were placed in a spray chamber having a static platform and a movable sprayer and height of the spray nozzle was 10.5 inches above the soil level. Once the sprayer was calibrated using water for spray volume of 30 gallons per acre, flats were sprayed with sprayer at a speed to receive a coverage equivalent of 30 gallons per acre. […] The pre-emergence flats were immediately placed in the greenhouse and watered lightly after treatment. Thereafter they were regularly watered and fertilized for the duration of the test.

common chickweed (CC) = experiment: Ex2 PRE greenhouse, % control; assay type: in vivo, Stellaria media; details: 28 DAT, g ai/ha by row: r12-40 2,4-DC 31.25/62.5/125/250/375 (3 rows each) + metazachlor 250/500/750 (cycling), r42-46 2,4-DC 31.25/62.5/125/250/375, r47-49 metazachlor 250/500/750
Protocol: as §1, §2, §3, §4, §5

weeds = experiment: Ex18 PRE greenhouse; assay type: in vivo; details: weed and rate in the words
Excerpt: Additional treatments included application of metazachlor (Butisan®, 43.1%) at 750 g ai/ha, napropamide (Devrinol DF®, 50%) at 1260 g ai/ha, and dimethachlor (Teridox®, 48%) at 1000 g ai/ha. […] Treatments were applied just after the seeding of annual bluegrass, cheat, wild oat, quackgrass, field violet, blackgrass, littleseed canarygrass, silky windgrass, yellow foxtail, and goosegrass. […] Flats were watered and fertilized routinely after treatment application. Each treatment was replicated three times.

weeds; Wheat and canola = experiment: Ex27 PRE greenhouse; assay type: in vivo; details: weed and rate in the words
Excerpt: The weeds tested in this study were Italian ryegrass (Lolium perenne. multiflorum, LOLMU), wild mustard (Sinapis arvensis, SINAR), annual bluegrass (Poa annua POAAN), wild oat (Avena fatua, AVEFA), blackgrass (Alopecurus myosuroides, ALOMY), common lambsquarters (Chenopodium album […] (Phalaris minor, PHAMI), common chickweed (Stellaria media, STEME), corn poppy (Papaver rhoeas PAPRH). The crops tested were Wheat and canola. […] Treatments were applied before the emergence of Italian ryegrass, wild oat, blackgrass, littleseed canarygrass, common chickweed, common lambsquarters, corn poppy, wild mustard, annual bluegrass, canola, and wheat. […] Flats were watered and fertilized routinely after treatment application. […] Wheat and corn poppy were rated at 14 and 21 DAT only.

[3] = r42-46 2,4-DC 31.25/62.5/125/250/375, r47-49 metazachlor 250/500/750, 250 g ai/ha
[4] = r42-46 2,4-DC 31.25/62.5/125/250/375, r47-49 metazachlor 250/500/750, 500 g ai/ha

Cc1cccc(C)c1N(Cn1cccn1)C(=O)CCl [Metazachlor, metazachlor]
% Control CP (corn poppy (CP)): 100% | % Control AB (annual bluegrass (AB)): 100% | % Control IR (Italian ryegrass (IR); [3]): 96% | % Control IR (Italian ryegrass (IR); [4]): 98% | % Control IR (Italian ryegrass (IR); r42-46 2,4-DC 31.25/62.5/125/250/375, r47-49 metazachlor 250/500/750, 750 g ai/ha): 99% | % Control CL [1]: 100% | % Control LC [2, 3]: 99% | % Control LC [2, 4]: 100% | % Control CC (common chickweed (CC)): 100% | weed control in words (weeds): controlled all weeds | weed control in words (weeds; Wheat and canola): alone controlled blackgrass at 750 g

— patent US12616203B2, “Use of 3-isoxazolidinones compounds as selective herbicides” (FMC Corporation, priority 2014, dated 2026)
